Results from patent US20240252456A1, “ORAL COMPOSITION, SKIN COSMETIC AND HAIR COSMETIC” (MARUZEN PHARMACEUTICALS CO., LTD., priority 2021, published 2024).

Assays:
elastase type III = biological target: T1, elastase type III (Sus scrofa, UniProt P00772); assay: Elastase activity inhibitory action test; type: biochemical; conditions: read-out: Elastase activity inhibition rate; for inhibition at 1000 µM: 1000 μmol/L
T1 construct: purchased SIGMA-Aldrich type III
Experimental: In a 96-well microplate, 50 μL of each of test samples (Samples 1 to 3, see Table 8 below for final concentrations) prepared with 0.2 mol/L Tris-HCl buffer solution (pH 8.0) and 50 μL of 20 μg/mL elastase type III (available from SIGMA-Aldrich) solution was mixed. After that, 100 μL of 0.4514 mg/mL N-succinyl-Ala-Ala-Ala-p-nitroanilide (available from SIGMA-Aldrich) prepared with the above buffer solution was added, and the mixture was reacted at 25° C. for 15 minutes. After the reaction was completed, the absorbance at a wavelength of 415 nm was measured. In addition, a blank test without enzyme addition was performed in the same manner and correction was made. From the obtained results, the elastase activity inhibition rate (%) was calculated using the following equation.
Terms in the equation represent the following respective ones. • A: Absorbance at wavelength 415 nm without sample addition and with enzyme addition • B: Absorbance at wavelength 415 nm without sample addition and without enzyme addition • C: Absorbance at wavelength 415 nm with test sample addition and with enzyme addition • D: Absorbance at wavelength 415 nm with test sample addition and without enzyme addition

[1] = test system: Normal human liver cells (hepatocytes); assay: Glutathione production promotive action test (hepatocytes); type: cell-based; conditions: 24 hours
Experimental: Normal human liver cells (hepatocytes) were cultured using Dulbecco's modified Eagle's medium (DMEM) containing 10% FBS, and then the cells were collected by a trypsin treatment. The collected cells were diluted with DMEM containing 10% FBS to a cell density of 10×10^4 cells/mL, then seeded with 200 μL per well in a 48-well plate, and cultured overnight.
After culturing, the medium was removed, 200 μL of each of test samples (Samples 1 to 3, see Table 30 below for final concentrations) dissolved in DMEM containing 1% FBS was added to each well, and culturing was further performed for 24 hours. As a control, culturing was performed in the same manner using DMEM containing 1% FBS to which no sample was added. After the culturing was completed, the medium was removed from each well, and the cells were washed with 400 μL of PBS(−) and then lysed using 150 μL of M-PER (available from PIERCE).
Quantitative determination of total glutathione was performed using 100 μL of the lysed cells. That is, 100 μL of lysed cell extract, 50 μL of 0.1 mol/L phosphate buffer solution, 25 μL of 2 mmol/L NADPH, and 25 μL of 3.2 unit/mL glutathione reductase were added to a 96-well plate and heated at 37° C. for 10 minutes, then 25 μL of 10 mmol/L 5,5′-dithiobis(2-nitrobenzoic acid) was added, and the absorbance at a wavelength of 412 nm was measured until 5 minutes later to determine ΔOD/min. The total glutathione concentration was calculated based on a calibration curve created using oxidized glutathione (available from FUJIFILM Wako Pure Chemical Corporation). After correcting the obtained value to the glutathione value per total protein amount, the glutathione production promotion rate (%) was calculated based on the following equation.
Terms in the equation represent the following respective ones. • A: Glutathione amount per total protein amount without sample addition • B: Glutathione amount per total protein amount with test sample addition

[2] = biological target: T2, testosterone 5α-reductase (S-9, rat liver homogenate) (Rattus norvegicus, UniProt P24008); assay: Testosterone 5α-reductase inhibitory action test; type: biochemical; conditions: rat liver S-9, read-out: Testosterone 5 α-reductase inhibition rate; for inhibition at 2000 µM: 2000 μmol/L; for inhibition at 8000 µM: 8000 μmol/L
T2 construct: tissue Oriental Yeast Co., Ltd. S-9; host or cells: rat liver homogenate (S-9 fraction)
T2 sequence (P24008 1-259): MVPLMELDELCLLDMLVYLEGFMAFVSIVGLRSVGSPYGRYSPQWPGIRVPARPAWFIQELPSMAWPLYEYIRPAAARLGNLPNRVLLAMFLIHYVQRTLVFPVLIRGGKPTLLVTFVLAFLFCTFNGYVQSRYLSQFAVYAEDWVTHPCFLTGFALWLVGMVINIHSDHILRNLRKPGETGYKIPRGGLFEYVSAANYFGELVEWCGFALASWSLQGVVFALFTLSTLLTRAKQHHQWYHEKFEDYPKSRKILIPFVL
Experimental: In a V-bottom test tube with a lid, 20 μL of a 4.2 mg/mL testosterone (available from FUJIFILM Wako Pure Chemical Corporation) solution prepared with propylene glycol and 825 μL of 5 mmol/L Tris-HCl (pH 7.13) buffer solution containing 1 mg/mL NADPH were mixed.
Furthermore, 80 μL of each of test sample solutions (Samples 1 to 3, see Table 24 below for final concentrations) prepared with 80% ethanol and 75 μL of S-9 (available from Oriental Yeast Co., Ltd., rat liver homogenate) were added, mixed, and incubated at 37° C. for 60 minutes. After that, 1 mL of methylene chloride was added to stop the reaction. This was centrifuged (1600×g, 10 minutes), the methylene chloride layer was separated, and the separated methylene chloride layer was subjected to gas chromatography analysis under the following conditions to determine the concentrations of 3α-androstanediol, 5α-dihydrotestosterone (5α-DHT), and testosterone. As a control, the same process was performed using the same amount (80 μL) of the sample solvent in place of the test sample solution, and the control was subjected to gas chromatography analysis.
• Device used: Shimadzu GC-2010 (available from Shimadzu Corporation) • Column: DB-1701 (inner diameter: 0.53 mm, length: 30 m, film thickness: 1.0 μm) (available from J&W Scientific) • Column temperature: 240° C. • Inlet temperature: 300° C. • Detector: FID • Sample injection amount: 1 μL • Split ratio: 1:2 • Carrier gas: Nitrogen gas • Carrier gas flow rate: 12 mL/min
Quantitative determination of the concentrations of 3α-androstanediol, 5α-DHT, and testosterone was performed by the following method.
Standard products of 3α-androstanediol, 5α-DHT, and testosterone were each dissolved in ethanol, and the solutions were subjected to gas chromatography analysis. From the concentrations (μg/mL) and peak areas of these compounds, the correspondence relationship between the peak area and the concentration of each compound was preliminarily obtained. Then, the concentration per peak area of each of 3α-androstanediol, 5α-DHT, and testosterone after the reaction between testosterone and S-9 was obtained based on the following equation (1) using the correspondence relationship which was preliminarily obtained.
Terms in the equation represent the following respective ones. • A: Concentration of 3α-androstanediol, 5α-DHT, or testosterone • B: Peak area of 3α-androstanediol, 5α-DHT, or testosterone • C: Concentration of standard product • D: Peak area of standard product
Using the compound concentration calculated based on the equation (1), the conversion ratio (concentration ratio between the concentration of 3α-androstanediol and 5α-DHT produced by reduction of testosterone due to testosterone 5α-reductase and the initial concentration of testosterone) was calculated based on the following equation (2).
Terms in the equation represent the following respective ones. • E: Concentration of 3α-androstanediol (μg/mL) • F: Concentration of 5α-DHT (μg/mL) • G: Concentration of testosterone (μg/mL)
Using the conversion ratio calculated based on the equation (2), the testosterone 5α-reductase inhibition rate (%) was calculated based on the following equation (3).
Terms in the equation represent the following respective ones. • H: Conversion ratio with test sample addition • I: Conversion ratio without sample addition

T1 sequence (P00772 27-266): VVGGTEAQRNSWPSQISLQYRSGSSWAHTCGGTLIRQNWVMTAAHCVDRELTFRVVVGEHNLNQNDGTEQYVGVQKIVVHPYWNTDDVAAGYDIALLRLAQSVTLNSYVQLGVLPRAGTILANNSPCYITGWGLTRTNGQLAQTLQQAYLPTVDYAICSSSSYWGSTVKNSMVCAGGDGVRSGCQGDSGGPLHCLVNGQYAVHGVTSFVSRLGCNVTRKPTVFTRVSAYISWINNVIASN

SMILES	inhibition at 1000 µM (elastase type III) [%]	Glutathione production promotion rate ([1]; 31.2 μmol/L) [%]	Glutathione production promotion rate ([1]; 125 μmol/L) [%]	Glutathione production promotion rate ([1]; 500 μmol/L) [%]	inhibition at 2000 µM [2] [%]	inhibition at 8000 µM [2] [%]	inhibition at 250 µM (elastase type III; 250 μmol/L) [%]	inhibition at 500 µM (elastase type III; 500 μmol/L) [%]
O=C(O)CCc1ccccc1 [Sample 3, 3-phenylpropionic acid]	5	133.9	124.6	119.2	76.4	100	–	–
O=C(O)CCc1ccc(O)c(O)c1 [Sample 1, 3,4-Dihydroxyhydrocinnamic acid]	8.1	123.9	124.8	113.4	34.3	100	3.2	6.7
O=C(O)CCc1ccc(O)cc1 [Sample 2, 3-(4-Hydroxyphenyl)propionic acid]	4.2	119.2	118.1	–	71	100	–	–
